Test results reported in patent publication US11492335B2, “Aryl or heteroaryl triazolone derivatives or salts thereof, or pharmaceutical compositions comprising the same” (YUHAN CORPORATION, priority 2018, dated 2022).
Structures can show the parent of a compound that is named as a salt.

Experiments:
Type in all cases: biochemical
[1] = molecular target: T1, recombinant human DAO (diamine oxidase) (Homo sapiens, UniProt P19801); assay: Activity on recombinant human DAO, Amplex Red method, 1 mM putrescine substrate; conditions: recombinant human DAO, 1 mM putrescine; * = between 10 and 100 nM, ** = between 300 and 1000 nM; read-out: Inhibitory Activity (IC50, nM) DAO
T1 construct: purchased R&D systems
T1 sequence (P19801 20-751): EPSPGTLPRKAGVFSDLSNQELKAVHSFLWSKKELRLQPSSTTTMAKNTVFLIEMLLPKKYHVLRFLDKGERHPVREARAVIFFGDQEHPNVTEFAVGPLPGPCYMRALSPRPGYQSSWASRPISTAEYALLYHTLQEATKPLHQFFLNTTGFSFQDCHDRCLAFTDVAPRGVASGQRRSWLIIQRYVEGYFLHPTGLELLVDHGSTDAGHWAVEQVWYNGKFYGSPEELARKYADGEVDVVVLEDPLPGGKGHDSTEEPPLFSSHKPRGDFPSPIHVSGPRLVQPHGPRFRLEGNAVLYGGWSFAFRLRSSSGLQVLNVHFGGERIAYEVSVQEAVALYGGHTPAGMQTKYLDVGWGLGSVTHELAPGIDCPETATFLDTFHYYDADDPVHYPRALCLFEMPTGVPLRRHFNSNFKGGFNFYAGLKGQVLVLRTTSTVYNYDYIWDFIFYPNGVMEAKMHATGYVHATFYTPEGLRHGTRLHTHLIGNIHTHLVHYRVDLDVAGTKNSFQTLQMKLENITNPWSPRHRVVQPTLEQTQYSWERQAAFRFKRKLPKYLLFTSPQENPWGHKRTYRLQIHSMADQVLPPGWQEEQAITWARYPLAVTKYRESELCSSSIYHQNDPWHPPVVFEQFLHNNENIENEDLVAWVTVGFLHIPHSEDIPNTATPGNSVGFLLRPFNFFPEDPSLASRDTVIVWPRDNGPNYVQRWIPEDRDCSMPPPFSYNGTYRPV
In short: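 Inhibition of recombinant human DAO (diamine oxidase, R&D systems) was assessed with the Amplex Red Hydrogen Peroxide Assay Kit. Hydrogen peroxide produced from 1 mM putrescine was detected through an HRP-coupled reaction that converts Amplex Red into fluorescent resorufin, read at 544 nm excitation and 590 nm emission. IC50 values came from four-parameter logistic fits in GraphPad Prism.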

[2] = molecular target: T2, recombinant human VAP-1 (Homo sapiens, UniProt Q16853); assay: Activity on recombinant human VAP-1, Amplex Red HRP-coupled hydrogen peroxide assay, benzylamine substrate; conditions: recombinant human VAP-1, benzylamine substrate, 30 min preincubation at 37° C.; read-out: Inhibitory Activity (IC50, nM) human VAP-1
T2 construct: purchased R&D systems
T2 sequence (Q16853 1-763): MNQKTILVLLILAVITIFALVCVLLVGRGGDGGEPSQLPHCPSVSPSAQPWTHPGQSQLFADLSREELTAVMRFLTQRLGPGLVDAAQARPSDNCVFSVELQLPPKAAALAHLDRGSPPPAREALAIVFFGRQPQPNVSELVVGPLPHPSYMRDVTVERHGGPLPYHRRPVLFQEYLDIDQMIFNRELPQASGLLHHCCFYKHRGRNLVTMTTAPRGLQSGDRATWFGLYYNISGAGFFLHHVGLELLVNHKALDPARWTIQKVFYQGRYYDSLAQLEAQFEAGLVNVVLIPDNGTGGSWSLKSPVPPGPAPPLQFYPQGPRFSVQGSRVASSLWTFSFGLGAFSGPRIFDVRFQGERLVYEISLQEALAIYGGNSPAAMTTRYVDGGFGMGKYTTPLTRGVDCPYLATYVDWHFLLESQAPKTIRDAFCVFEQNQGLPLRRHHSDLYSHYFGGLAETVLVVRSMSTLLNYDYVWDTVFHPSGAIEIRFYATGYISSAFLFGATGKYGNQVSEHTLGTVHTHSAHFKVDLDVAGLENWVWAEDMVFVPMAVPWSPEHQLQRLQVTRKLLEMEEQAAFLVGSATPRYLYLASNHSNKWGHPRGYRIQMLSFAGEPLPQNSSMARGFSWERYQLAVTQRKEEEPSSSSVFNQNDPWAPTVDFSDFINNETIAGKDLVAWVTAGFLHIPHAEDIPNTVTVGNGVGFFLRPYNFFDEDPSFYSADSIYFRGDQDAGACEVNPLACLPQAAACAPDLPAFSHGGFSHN
In short: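 8-point 1:3 dilutions, final DMSO <1%; 30 min enzyme preincubation, 37 °C, pH 7.4 phosphate. Start: 1 mM benzylamine + 200 uM Amplex Red + 1 U/mL HRP. Read ex544/em590 over 1-2 h; % rate decrease vs DMSO control, 4-parameter logistic IC50.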

[3] = molecular target: T3, recombinant human MAO-B (monoamine oxidase-B) (Homo sapiens, UniProt P27338); assay: Activity on recombinant human MAO-B, Amplex Red method, 1 mM benzylamine substrate; conditions: 1 mM benzylamine, read-out: Inhibitory Activity (IC50, nM) MAO-B
T3 construct: purchased Sigma-Aldrich
T3 sequence (P27338 1-520): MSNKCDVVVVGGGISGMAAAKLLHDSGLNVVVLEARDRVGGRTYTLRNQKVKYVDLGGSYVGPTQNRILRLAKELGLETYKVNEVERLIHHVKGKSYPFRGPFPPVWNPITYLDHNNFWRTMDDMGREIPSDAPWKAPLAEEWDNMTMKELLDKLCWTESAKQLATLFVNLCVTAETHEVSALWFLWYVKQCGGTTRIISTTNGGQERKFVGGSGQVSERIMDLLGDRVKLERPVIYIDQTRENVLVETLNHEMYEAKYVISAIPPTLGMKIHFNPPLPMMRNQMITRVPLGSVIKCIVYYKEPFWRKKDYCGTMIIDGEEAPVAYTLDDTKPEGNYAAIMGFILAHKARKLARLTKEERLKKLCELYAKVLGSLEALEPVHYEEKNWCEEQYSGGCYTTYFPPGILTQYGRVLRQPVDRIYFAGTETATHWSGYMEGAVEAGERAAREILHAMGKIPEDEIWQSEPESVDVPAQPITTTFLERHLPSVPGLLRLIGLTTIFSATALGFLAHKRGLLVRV
Experimental: (§1) The compounds according to the present technology were evaluated in terms of activity on recombinant human VAP-1 (R&D systems) by measuring the level of hydrogen peroxide in horseradish peroxidase (HRP)-coupled reaction using Amplex Red Hydrogen Peroxide Assay Kit (Molecular Probes, Invitrogen, USA). The experiment was carried out at room temperature using benzylamine as a substrate. In the HRP-coupled reaction, hydrogen peroxide oxidation of 10-acetyl-3,7-dihydroxyphenoxazine (Amplex Red reagent) produces resorufin, which is a highly fluorescent compound. Briefly, the test compound was dissolved in dimethyl sulfoxide (DMSO) at a concentration of 20 mM. The dose-response assessment was made by 1:3 serial dilution in DMSO, thereby creating an 8 point curve. The concentration of the upper part was controlled according to the efficacy of the compounds, followed by dilution with a reaction buffer solution to obtain a final DMSO concentration less than 1%. To each well of a 96 black well plate, human VAP-1 purified in 50 mM sodium phosphate buffer solution (pH7.4) was added. The test compounds dissolved in DMSO were incubated with the human VAP-1 enzymes at 37° C. for 30 minutes. After 30-minute incubation, each well is added with a reaction mixture containing 200 uM Amplex Red reagent prepared from 50 mM sodium phosphate buffer solution (pH 7.4), 1 mM benzylamine, and 1 U/mL HRP. Fluorescence intensity was measured at several time points during 1-2 hours using a microplate reader (Flexstation3, Molecular Devices) under the wavelength condition exciting at 544 nm and reading the emission at 590 nm. The inhibitory effect of the compounds was measured as a decrease (%) in the signal rate as compared to the control group without any inhibitor (only diluted DMSO). Data was fixed to a logistic model with four variables and IC50 value was calculated using GraphPad Prism program.
(§2) In addition, the compounds according to the present technology were evaluated in terms of activity on a recombinant human MAO-A (monoamine oxidase-A, Sigma-Aldrich) and a recombinant human MAO-B (monoamine oxidase-B, Sigma-Aldrich) by using as substrates, 0.5 mM tyramine and 1 mM benzylamine, respectively, with a method similar to the activity evaluation method for recombinant human VAP-1. The compounds according to the present technology were also evaluated in terms of activity on a recombinant human DAO (diamine oxidase, R&D systems) by using as a substrate 1 mM putrescine with a method similar to the activity evaluation method for recombinant human VAP-1.

[4] = molecular target: T4, recombinant human MAO-A (monoamine oxidase-A) (Homo sapiens, UniProt P21397); assay: Activity on recombinant human MAO-A, Amplex Red method, 0.5 mM tyramine substrate; conditions: 0.5 mM tyramine, read-out: Inhibitory Activity (IC50, nM) MAO-A
T4 construct: purchased Sigma-Aldrich
T4 sequence (P21397 1-527): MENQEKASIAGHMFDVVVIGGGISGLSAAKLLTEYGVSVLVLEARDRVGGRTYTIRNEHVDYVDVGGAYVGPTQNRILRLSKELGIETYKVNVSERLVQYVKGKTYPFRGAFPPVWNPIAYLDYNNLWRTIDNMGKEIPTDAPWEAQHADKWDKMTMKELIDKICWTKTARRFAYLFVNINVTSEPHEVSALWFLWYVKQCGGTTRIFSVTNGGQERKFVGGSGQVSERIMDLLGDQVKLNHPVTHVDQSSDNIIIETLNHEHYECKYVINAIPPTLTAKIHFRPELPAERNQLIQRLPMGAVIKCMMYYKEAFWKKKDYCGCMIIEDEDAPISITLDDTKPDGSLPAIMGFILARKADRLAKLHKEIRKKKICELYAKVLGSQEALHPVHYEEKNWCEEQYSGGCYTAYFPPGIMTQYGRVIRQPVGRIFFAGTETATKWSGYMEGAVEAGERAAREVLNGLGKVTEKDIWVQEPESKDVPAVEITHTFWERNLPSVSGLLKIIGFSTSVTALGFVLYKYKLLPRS
Experimental: as §1, §2

For `NC/C(=C\F)Cn1ncn(-c2ccc(Br)c(F)c2)c1=O` [Example 14, 2-[(2E)-2-(aminomethyl)-3-fluoroprop-2-en-1-yl]-4-(4-bromo-3-fluorophenyl)-2,4-dihydro-3H-1,2,4-triazol-3-one hydrochloride], the IC50 [1] was 38 nM, the IC50 [2] was 0.96 nM and the IC50 [3] was 35 nM. The IC50 [4] was 5200 nM.

`Cc1cc(-n2cnn(C/C(=C\F)CN)c2=O)ccc1Br` [Example 15, 2-[(2Z)-2-(aminomethyl)-3-fluoroprop-2-en-1-yl]-4-(4-bromo-3-methylphenyl)-2,4-dihydro-3H-1,2,4-triazol-3-one] was tested, and the IC50 [1] was 85 nM, the IC50 [2] was 2.2 nM and the IC50 [3] was 9.8 nM. For the same molecule, the IC50 [4] was 710 nM.

With `Cc1cc(-n2cnn(C/C(=C/F)CN)c2=O)ccc1Br` [Example 16, 2-[(2E)-2-(aminomethyl)-3-fluoroprop-2-en-1-yl]-4-(4-bromo-3-methylphenyl)-2,4-dihydro-3H-1,2,4-triazol-3-one hydrochloride] the IC50 [1] was 12 nM, the IC50 [2] was 0.74 nM and the IC50 [3] was 141 nM. It also gave an IC50 [4] of 32000 nM.

In the case of `COc1cc(-n2cnn(C/C(=C\F)CN)c2=O)ccc1Br` [Example 17, 2-[(2Z)-2-(aminomethyl)-3-fluoroprop-2-en-1-yl]-4-(4-bromo-3-methoxyphenyl)-2,4-dihydro-3H-1,2,4-triazol-3-one], the IC50 [1] is reported as 31 nM, the IC50 [2] is reported as 2.7 nM and the IC50 [3] is reported as 406 nM. The IC50 [4] was greater than 100000 nM.

`COc1cc(-n2cnn(C/C(=C/F)CN)c2=O)ccc1Br` [Example 18, 2-[(2E)-2-(aminomethyl)-3-fluoroprop-2-en-1-yl]-4-(4-bromo-3-methoxyphenyl)-2,4-dihydro-3H-1,2,4-triazol-3-one hydrochloride] was tested, and the IC50 [1] was 21 nM, the IC50 [2] was 1.4 nM and the IC50 [3] was 58 nM. It also gave an IC50 [4] greater than 100000 nM.

`NC/C(=C\F)Cn1ncn(-c2cc(F)c(Br)c(F)c2)c1=O` [Example 20, 2-[(2E)-2-(aminomethyl)-3-fluoroprop-2-en-1-yl]-4-(4-bromo-3,5-difluorophenyl)-2,4-dihydro-3H-1,2,4-triazol-3-one hydrochloride] gave an IC50 [1] of 15 nM, an IC50 [2] of 2.2 nM and an IC50 [3] greater than 10000 nM. For the same molecule, the IC50 [4] was greater than 100000 nM.

`NC/C(=C/F)Cn1ncn(-c2c(F)cc(Br)cc2F)c1=O` [Example 21, 2-[(2Z)-2-(aminomethyl)-3-fluoroprop-2-en-1-yl]-4-(4-bromo-2,6-difluorophenyl)-2,4-dihydro-3H-1,2,4-triazol-3-one hydrochloride] was tested, and the IC50 [1] was 333 nM, the IC50 [2] was 7.3 nM and the IC50 [3] was 25 nM. It also gave an IC50 [4] of 400 nM.

`NC/C(=C\F)Cn1ncn(-c2c(F)cc(Br)cc2F)c1=O` [Example 22, 2-[(2E)-2-(aminomethyl)-3-fluoroprop-2-en-1-yl]-4-(4-bromo-2,6-difluorophenyl)-2,4-dihydro-3H-1,2,4-triazol-3-one hydrochloride] gave an IC50 [1] of 420 nM, an IC50 [2] of 1.4 nM and an IC50 [3] of 146 nM. For the same molecule, the IC50 [4] was 12000 nM.

For `NC/C(=C\F)Cn1ncn(-c2cc(F)c(Br)cc2F)c1=O` [Example 23, 2-[(2E)-2-(aminomethyl)-3-fluoroprop-2-en-1-yl]-4-(4-bromo-2,5-difluorophenyl)-2,4-dihydro-3H-1,2,4-triazol-3-one hydrochloride], the IC50 [1] was 32 nM, the IC50 [2] was 2.2 nM and the IC50 [3] was 142 nM. The IC50 [4] was 5200 nM.

`NC/C(=C/F)Cn1ncn(-c2ccc(Br)nc2)c1=O` [Example 24, 2-[(2Z)-2-(aminomethyl)-3-fluoroprop-2-en-1-yl]-4-(6-bromopyridin-3-yl)-2,4-dihydro-3H-1,2,4-triazol-3-one] was tested, and the IC50 [1] was 26 nM, the IC50 [2] was 4.6 nM and the IC50 [3] was 17 nM. It also gave an IC50 [4] of 6600 nM.
